Assay results as given in US20220105051A1, “COMPOUNDS FOR INCREASING MHC-I EXPRESSION AND MODULATING HISTONE DEACETYLASE ACTIVITY” (Cava Healthcare Inc., priority 2019, published 2022).
“Also recorded” adds a separate entry of the source.

Columns and labels:
[1] = system: MHC-I; experiment: MHC-I surface expression by flow cytometry; format: cell-based, murine; details: for induction of MHC-I expression at the cell surface: 48 hours after treatment, flow cytometry; for MHC class I upregulation: relative to DMSO
Experimental: (§1) A9 and TC-1 cell lines were trypsinized (0.05%, Gibco), washed twice with PBS (Gibco), and stained with allophycocyanin (APC) conjugated anti-mouse H-2K^b antibody (1:200, Biolegend) suspended in 150 μL of FACS buffer (PBS+2% FBS) for 20 minutes at 4° C. Cells were washed twice with PBS and re-suspended in 200 μL FACs buffer containing 1 μL of 7-aminoactinomycin (7AAD) viability stain (Biolegend). Flow cytometry was performed on the LSRII (BDBiosciences) and analysis was done using FlowJo (Flow cytometry Analysis Software).
(§2) The marine extract library was provided by Dr. Raymond J. Andersen (UBC). The marine invertebrate specimens were collected by SCUBA diving at a 40 metre depth from regions of high marine biodiversity in Papua New Guinea, Indonesia, Thailand, Sri Lanka, Dominica, Brazil, British Columbia, South Africa, and Norway 35. Previously curcuphenol was identified as the active component in one of the marine extracts showing induction of the APM, and since then two new generations of curcuphenol analogues were synthesized in the lab of Dr. Raymond Anderson. To evaluate the ability of these compounds to induce MHC-I surface expression, A9 cells were plated in 6 well plates at 10^5 cells/well and incubated for 24 hours at 37° C. in a 5% CO2 humidified atmosphere. After 24 hours the medium was removed and replaced with medium containing varying concentration of synthesized compounds (6.7 μg/mL, 20 μg/mL, 60 μg/mL). […] Following treatment, cells were incubated for 48 hours at 37° C. with 5% CO2 and humidified atmosphere. After incubation cells were subjected to flow cytometry.
Evaluation of MHC-I surface expression by flow cytometry. LMD:TAP-1 cells or A9 cells were plated in 6 well plates at a concentration of 10,000 cells per well in a 2 mL volume. The next day, cells were treated with the indicated concentrations of the compounds and incubated for 48 hours at 37° C. After incubation, the cells were trypsinized, washed and stained with APC-conjugated anti-mouse MHC-I (specifically anti-H-2K^b) antibody (Biolegend) and assessed by flow cytometry analysis.

[2] = target: T1, HDAC5 (Homo sapiens, UniProt Q9UQL6); experiment: Individualized HDAC assay, HDAC5; format: biochemical; details: purified enzyme, 5 to 0.02 μM
T1 construct: purchased BPS Biosciences
T1 sequence (Q9UQL6 whole entry): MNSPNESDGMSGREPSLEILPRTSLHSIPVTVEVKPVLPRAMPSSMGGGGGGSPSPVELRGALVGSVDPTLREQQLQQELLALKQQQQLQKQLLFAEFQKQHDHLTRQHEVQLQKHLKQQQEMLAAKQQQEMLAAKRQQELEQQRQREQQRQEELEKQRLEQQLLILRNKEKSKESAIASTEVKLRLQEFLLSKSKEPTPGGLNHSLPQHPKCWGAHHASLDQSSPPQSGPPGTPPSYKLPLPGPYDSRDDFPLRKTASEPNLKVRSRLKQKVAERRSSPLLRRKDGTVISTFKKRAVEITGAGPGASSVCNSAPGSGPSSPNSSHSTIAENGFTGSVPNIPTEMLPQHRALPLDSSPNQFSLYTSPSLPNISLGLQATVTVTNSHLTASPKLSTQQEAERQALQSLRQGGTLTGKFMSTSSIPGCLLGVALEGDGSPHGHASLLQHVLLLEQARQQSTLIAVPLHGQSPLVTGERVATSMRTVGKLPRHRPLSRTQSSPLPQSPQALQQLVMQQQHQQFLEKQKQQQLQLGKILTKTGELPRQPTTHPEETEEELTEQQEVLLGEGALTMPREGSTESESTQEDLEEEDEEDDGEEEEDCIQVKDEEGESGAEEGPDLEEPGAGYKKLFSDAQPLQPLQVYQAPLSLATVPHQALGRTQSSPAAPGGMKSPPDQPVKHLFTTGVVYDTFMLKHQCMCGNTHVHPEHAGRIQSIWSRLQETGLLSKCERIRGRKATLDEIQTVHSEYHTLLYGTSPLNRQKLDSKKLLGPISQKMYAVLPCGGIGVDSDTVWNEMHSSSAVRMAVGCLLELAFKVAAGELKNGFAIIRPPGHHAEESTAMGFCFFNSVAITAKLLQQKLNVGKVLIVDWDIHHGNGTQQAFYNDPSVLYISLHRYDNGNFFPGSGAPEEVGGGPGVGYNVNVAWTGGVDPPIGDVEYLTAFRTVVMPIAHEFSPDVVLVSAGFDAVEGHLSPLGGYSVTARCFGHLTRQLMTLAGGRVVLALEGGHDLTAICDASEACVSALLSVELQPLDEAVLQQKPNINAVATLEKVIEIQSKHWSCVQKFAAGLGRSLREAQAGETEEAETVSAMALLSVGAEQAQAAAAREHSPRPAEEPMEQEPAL
Experimental: (§3) The activity of the curcuphenol analogues was assessed with purified HDAC enzymes from all classes I, II, and IV, as well as a select member of HDAC class III (SIRT1). HDACs 1-9 and SIRT1 were evaluated using HDAC Fluorogenic Assay Kits (BPS Biosciences). All assays were completed in black-sided clear-bottom 96 well plates (PerkinElmer), and all treatments were plated in triplicates. Treatment started at 5 μM and was two-fold diluted to a concentration 0.02 μM. The assays were measured using the Synergy HI hybrid reader (BioTek) and Gen5 software (BioTek), excitation was set to 360 nm and detection was measured at 450 nm with a gain of 100. Alternatively HDAC 10 and 11 (BPS Biosciences) were optimized for HDAC concentration using the HDAC-Glo™ I/II Assay and Screening System (Promega). Following optimization each HDAC was run following the Promega protocol in black-sided clear-bottomed 96 well plates in triplicates with same treatments listed above (PerkinElmer). Luminescence was read 30 minutes after HDAC-Glo™I/II reagent was added using the Synergy HI hybrid reader (BioTek) and Gen5 software (Bio-Tek). […] To calculate percent activity, the average of blank wells was subtracted from all treatment groups. The relative mean of activity of the HDAC being measured was determined and all wells that received treatment were divided this average, to give a percentage of activity.
(§4) To evaluate the effect of the compounds on specific HDACs, their activity was assessed with purified HDAC enzymes from all classes I, II, and IV, as well as a select member of HDAC class III (SIRT1). HDACs 1-9 and SIRT1 were evaluated using HDAC Fluorogenic Assay Kits (BPS Biosciences) following the manufacturer's recommendations. Compound treatment started at 5 μM and was two-fold diluted to a concentration 0.02 μM. Alternatively, HDAC 10 and 11 assays (BPS Biosciences) were optimized to be used with the HDAC-Glo™ I/II Assay and Screening System (Promega). The assays were measured using the Synergy HI hybrid reader (BioTek) and Gen5 software (Bio-Tek). […] To calculate the fold change in HDAC activity, the values from each treated well were divided by the relative mean of activity of the specific HDAC being measured.

[3] = target: T2, HDAC8 (Homo sapiens, UniProt Q9BY41); experiment: Individualized HDAC assay, HDAC8; format: biochemical; details: purified enzyme; for concentration at which HDAC8 inhibition was seen: 5 to 0.02 μM tested; for HDAC8 activity at higher concentrations: up to 5 μM
T2 construct: purchased BPS Biosciences
T2 sequence (Q9BY41 1-377): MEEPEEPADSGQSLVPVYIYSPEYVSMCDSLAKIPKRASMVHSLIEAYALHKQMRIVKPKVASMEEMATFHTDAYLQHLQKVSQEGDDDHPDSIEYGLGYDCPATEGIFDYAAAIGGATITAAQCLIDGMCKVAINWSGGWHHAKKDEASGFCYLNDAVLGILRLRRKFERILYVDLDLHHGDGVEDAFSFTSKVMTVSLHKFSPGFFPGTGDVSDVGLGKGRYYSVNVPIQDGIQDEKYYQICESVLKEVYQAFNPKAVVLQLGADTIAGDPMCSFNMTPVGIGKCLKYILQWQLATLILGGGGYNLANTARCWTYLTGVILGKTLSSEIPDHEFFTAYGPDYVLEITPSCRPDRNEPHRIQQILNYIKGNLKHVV
Experimental: as §3, §4

[4] = system: A9 cell line; experiment: Cytotoxicity / live cell frequency in A9 cells (flow cytometry, 7AAD); format: cell-based, murine; details: for cytotoxicity: 48 hours after treatment
Experimental: as §1, §2

Structure (SMILES) | induction of MHC-I expression at the cell surface ([1]; A9 cells) | HDAC5 activity [2] | effect on HDAC8 activity [3] | concentration at which HDAC8 inhibition was seen [3] | HDAC8 activity at higher concentrations [3] | cytotoxicity [4] | HDAC5 activity ([2]; listed as PO-3-97-1) | concentration of optimum MHC upregulation and live cell frequency ([1]; A9 cells, 48 hours) | MHC class I upregulation ([1]; A9 cells, 48 hours, 0.032, 0.064 and 0.128 μmol) | MHC class I upregulation ([1]; A9 cells, 48 hours, 0.055, 0.064 and 0.071 umol) | surface MHC I molecules ([1]; cancer cell lines in vitro) | live cell frequency ([4]; 48 hours, 0.128 μmol)
CC(C)=CCCCc1ccc(C)cc1O [P02-113] | strong induction of MHC-I; also recorded: greatest consistent induction of MHC-I expression; also recorded: highest expression of MHC-I | enhanced; also recorded: increase in activity levels | act as inhibitors to HDAC8; also recorded: slight inhibition at lower concentrations | ≤ 0.3 µM | no change in HDAC8 activity | low cytotoxicity; also recorded: lowest cytotoxicity | – | – | – | – | – | –
COc1ccc(C(C)CCC=C(C)C)c(O)c1 (stereo not shown) [P03-97-1] | strong induction of MHC-I; also recorded: greatest consistent induction of MHC-I expression; also recorded: highest expression of MHC-I | enhanced; also recorded: increase in activity levels | act as inhibitors to HDAC8; also recorded: slight inhibition at lower concentrations | 0.02 µM | no change in activity | low cytotoxicity; also recorded: lowest cytotoxicity | enhanced | – | – | – | – | –
CC(C)=CCC[C@H](C)c1ccc(C)cc1O [Curcuphenol, curcuphenol] | enhances the expression of MHC-I | activates | selectively inhibits | – | – | low cellular toxicity | – | 0.064 µmol | upregulated | upregulated | significantly increased | drops substantially
